Columns and labels:
[1] = tested on: bEND3, HT1080, HCT116 cells (EEF1A1 Band 2); test: IEF separation of cellular extracts after MetAP2 inhibitor treatment, Coomassie Blue staining; type: cell-based, mouse, human; conditions: 100 nM TNP-470; 1 μM A-832234; versus DMSO-treated cells
Method: (§1) Cellular extracts were electrophoretically separated for detailed analysis. Isoelectric focusing electrophoresis was performed in a gradient range of pH 7-9. The IEF gels (CleanGel IEF ultra ETC1001-52 from ETC, Germany) were re-hydrated in 7 M urea, 2 M thiourea, 1% DTE, 4% CHAPS, 3%, Servalyte 7-9 for 120 min, and assembled on a Multiphor II electrophoresis unit (GE Healthcare). Samples (5 μl) were applied close to the anode and run with anode buffer (6 M glycine) and cathode fluid 10 (Serva, Germany). […] Separation was performed at 2000 V for 210 min, followed by band sharpening at 2500 V for 10 min. After removal the gel was equilibrated in transfer buffer (50 mM Tris-HCl pH 7.5, 4 M guanidinium chloride, 1 mg/ml DTT) for a diffusion blot onto PVDF membrane and run overnight. Subsequently, the membrane was stained either with Coomassie Blue or immunostained with rabbit PcAb anti-human EEF1A1 (Proteintech Group, USA; 11402-1-AP) for 3 h and detected with ECL-Plus reagent (GE Healthcare).
IEF separation of cellular extracts after treatment of different endothelial and cancer cells (mouse: bEND3, human: HT1080, HCT116) was performed in a range of pH 7-9 (FIG. 1). Comparing extracts from DMSO-treated and MetAP2 inhibitor-treated (100 nM TNP-470; […] . A zoomed view is shown in FIG. 2.

EEF1A1 in bEND3 cells = test: EEF1A1 electrophoretic mobility shift in IEF gel, bEND3 cell extracts; type: cell-based, mouse; conditions: for EEF1A1 mobility shift versus negative controls (FIG. 10): bEND3 cells, 48 h, concentrations of Table 1
Method: as §1
The compounds used were characterized as inhibitors of MetAP2 and inhibitors of HUVEC cell proliferation with the indicated potencies (IC50).

MetAP2 = MetAP2 (Homo sapiens, UniProt P50579); test: Inhibition of MetAP2 activity: cleavage of tripeptide Met-Ala-Ser, enzyme-coupled detection of methionine; type: biochemical
MetAP2, sequence (P50579 whole entry, species assumed): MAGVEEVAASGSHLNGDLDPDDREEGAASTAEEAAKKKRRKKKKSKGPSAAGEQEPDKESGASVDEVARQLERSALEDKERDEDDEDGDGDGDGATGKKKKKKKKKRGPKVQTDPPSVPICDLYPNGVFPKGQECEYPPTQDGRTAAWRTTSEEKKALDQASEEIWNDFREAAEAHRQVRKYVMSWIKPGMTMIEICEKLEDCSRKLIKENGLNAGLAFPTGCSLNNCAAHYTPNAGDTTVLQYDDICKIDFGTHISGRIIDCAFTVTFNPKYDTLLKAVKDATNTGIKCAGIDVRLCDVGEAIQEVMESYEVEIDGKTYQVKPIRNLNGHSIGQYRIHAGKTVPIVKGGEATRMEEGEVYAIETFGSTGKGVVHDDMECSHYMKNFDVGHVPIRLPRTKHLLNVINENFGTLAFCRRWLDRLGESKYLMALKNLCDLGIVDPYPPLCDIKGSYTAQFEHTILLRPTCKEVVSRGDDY

HUVEC endothelial cells = test: Inhibition of HUVEC cell proliferation (colorimetric BrdU-Elisa); conditions: Homo sapiens, 72 h, read-out: Inhibition of HUVEC proliferation (BrdU incorporation) (IC50)
Method: In this case the compounds were incubated in serial dilutions with the HUVEC endothelial cells for 72 h and subsequently processed for BrdU detection.

In the case of `CCN(CC)C/C=C\c1cc(F)ccc1S(=O)(=O)Nc1ccc2c(c1C(=O)O)CCCC2` [Compound A-832234, 2-[2-((Z)-3-Diethylamino-propenyl)-4-fluoro-benzenesulfonylamino]-5,6,7,8-tetrahydro-naphthalene-1-carboxylic acid], the “new protein band (Band 2) after IEF pH 7-9” value [1] is reported as “a novel protein band” and the “EEF1A1 mobility shift versus negative controls (FIG. 10)” value (EEF1A1 in bEND3 cells) is reported as “active MetAP2 inhibitors”.

In the case of `CO[C@@H]1[C@H](OC(=O)NC(=O)CCl)CC[C@]2(CO2)[C@H]1[C@@]1(C)O[C@@H]1CC=C(C)C` [TNP470], the IC50 (MetAP2) is reported as 14 nM, the “new protein band (Band 2) after IEF pH 7-9” value [1] is reported as “a novel protein band” and the “EEF1A1 mobility shift, time course” value (EEF1A1 in bEND3 cells; bEND3 cell extract, TNP470, up to 48 h) is reported as “a second band (Band 2) with increasing intensity was already to be seen after 2 h”. For the same compound, the “EEF1A1 mobility shift versus negative controls (FIG. 10)” value (EEF1A1 in bEND3 cells) was “active MetAP2 inhibitors” and the IC50 (HUVEC endothelial cells) was 0.1 nM.

— patent US9151743B2, “Use of EEF1A as biomarker and a method of screening MetAP2 inhibitors” (MERCK PATENT GMBH, priority 2008, dated 2015)
